In patent US12384770B2, “Heterocyclic compound” (Takeda Pharmaceutical Company Limited, priority 2019, dated 2025):

These compounds were tested against T1, HDAC6 enzyme (Homo sapiens, UniProt Q9UBN7) (assay: HDAC6 enzyme inhibitory assay (HDAC-Glo I/II Assay kit)). Conditions: wells without enzyme = 100% inhibition.
T1 construct: HDAC6 enzyme prepared by transducing full length HDAC6 gene into Sf-9 insect cells; GST; purchased SignalChem; host or cells: Sf-9 insect cells
T1 sequence (Q9UBN7 1-1215): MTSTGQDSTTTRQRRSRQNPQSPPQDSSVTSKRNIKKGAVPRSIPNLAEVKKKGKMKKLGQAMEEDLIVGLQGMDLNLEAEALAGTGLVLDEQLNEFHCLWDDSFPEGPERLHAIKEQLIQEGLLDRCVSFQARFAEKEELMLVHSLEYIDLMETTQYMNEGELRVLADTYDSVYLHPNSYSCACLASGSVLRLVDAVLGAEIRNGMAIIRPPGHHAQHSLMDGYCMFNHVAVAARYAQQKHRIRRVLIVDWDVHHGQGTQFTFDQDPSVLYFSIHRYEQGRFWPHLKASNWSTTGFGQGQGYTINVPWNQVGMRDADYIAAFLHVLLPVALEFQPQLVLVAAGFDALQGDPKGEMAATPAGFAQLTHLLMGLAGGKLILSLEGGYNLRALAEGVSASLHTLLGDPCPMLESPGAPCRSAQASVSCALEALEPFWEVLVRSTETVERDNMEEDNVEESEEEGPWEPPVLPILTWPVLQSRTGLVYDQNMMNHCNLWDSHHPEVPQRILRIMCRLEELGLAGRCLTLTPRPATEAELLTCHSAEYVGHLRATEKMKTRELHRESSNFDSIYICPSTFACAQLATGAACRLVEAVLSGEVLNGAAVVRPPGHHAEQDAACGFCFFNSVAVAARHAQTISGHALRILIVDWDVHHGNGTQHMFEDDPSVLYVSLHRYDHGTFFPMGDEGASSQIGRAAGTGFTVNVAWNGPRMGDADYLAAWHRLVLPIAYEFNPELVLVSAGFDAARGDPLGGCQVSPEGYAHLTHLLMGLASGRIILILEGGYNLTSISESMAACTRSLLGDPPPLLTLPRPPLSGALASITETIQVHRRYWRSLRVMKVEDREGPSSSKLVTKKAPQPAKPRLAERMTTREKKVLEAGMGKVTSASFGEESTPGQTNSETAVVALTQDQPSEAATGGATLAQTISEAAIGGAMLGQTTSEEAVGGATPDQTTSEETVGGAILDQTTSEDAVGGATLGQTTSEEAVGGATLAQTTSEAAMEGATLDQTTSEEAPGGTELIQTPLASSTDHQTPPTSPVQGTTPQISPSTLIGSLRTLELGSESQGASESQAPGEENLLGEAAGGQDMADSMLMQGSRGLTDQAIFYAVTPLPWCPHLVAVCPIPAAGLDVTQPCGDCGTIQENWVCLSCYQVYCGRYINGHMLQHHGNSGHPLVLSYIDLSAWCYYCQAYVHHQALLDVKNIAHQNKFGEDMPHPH
Assay type: biochemical
Experimental: Experimental Example 1 HDAC6 Enzyme Inhibitory Assay
HDAC6 enzyme prepared by transducing full length HDAC6 gene into Sf-9 insect cells and purifying by GST affinity column were purchased from SignalChem. Using this enzyme, HDAC6 enzyme inhibitory activity of the compound of the present invention were evaluated. Enzymes were used after preserved at −70° C. HDAC6 enzyme inhibitory activity of the compound of the present invention was measured using HDAC-Glo™ I/II Assay kit (Promega) according to the following experimental method. The test compound diluted with assay buffer (24 mM Tris-HCl (pH 7.5), 1 mM MgCl2, 0.35 mM KCl, 135 mM NaCl, 0.6 mM Glutathione, 0.01% Tween-20) was added to a 384-well plate by each 2 μL. Then, HDAC6 enzyme solution diluted with assay buffer was added thereto by each 4 μL, and the plate was incubated at room temperature for 60 min. After incubated, HDAC substrate-Developer solution prepared according to Promega protocol attached to the assay kit was added to the 384-well plate by each 2 μL, and the enzyme reaction was started. After reacting at room temperature for 20 min, luminescence level was measured using plate reader Envision (PerkinElmer). The inhibitory activity of each compound of Example was calculated as a relative activity value when luminescence level in wells without enzyme is considered as 100% inhibition.

| HDAC6 inhibitory rate (%) (10 μM) | Compound |
| --- | --- |
| 101 | O=C1c2cc(-c3nnc(C(F)F)o3)ccc2CN1[C@H](C1CCOCC1)[C@@H](O)c1cccc(Cl)c1 (single isomer, unassigned) [Example 71, 2-[(1R*,2S*)-2-(3-chlorophenyl)-2-hydroxy-1-(oxan-4-yl)ethyl]-6-[5-(difluoromethyl)-1,3,4-oxadiazol-2-yl]-2,3-dihydro-1H-isoindol-1-one] |
| 99 | O=C1c2cc(-c3nnc(C(F)F)o3)ccc2CN1[C@H](c1ccc(F)cc1)[C@@H](O)c1ccc(F)nc1 (single isomer, unassigned) [Example 132, 6-[5-(difluoromethyl)-1,3,4-oxadiazol-2-yl]-2-[(1R*,2S*)-1-(4-fluorophenyl)-2-(6-fluoropyridin-3-yl)-2-hydroxyethyl]-2,3-dihydro-1H-isoindol-1-one] |
| 100 | O=C1c2cc(-c3nnc(C(F)F)o3)ccc2CN1[C@H](c1cccnn1)[C@@H](O)c1ccc(F)c(F)c1 (single isomer, unassigned) [Example 109, 6-[5-(difluoromethyl)-1,3,4-oxadiazol-2-yl]-2-[(1R*,2S*)-2-(3,4-difluorophenyl)-2-hydroxy-1-(pyridazin-3-yl)ethyl]-2,3-dihydro-1H-isoindol-1-one] |
| 101 | O=C1c2cc(-c3nnc(C(F)F)o3)ccc2CN1[C@H](c1ccccn1)[C@@H](O)c1cccc(C(F)(F)F)n1 (single isomer, unassigned) [Example 120, 6-[5-(difluoromethyl)-1,3,4-oxadiazol-2-yl]-2-{(1R*,2R*)-2-hydroxy-1-(pyridin-2-yl)-2-[6-(trifluoromethyl)pyridin-2-yl]ethyl}-2,3-dihydro-1H-isoindol-1-one] |
| 100 | O=C1c2cc(-c3nnc(C(F)F)o3)ccc2CN1[C@H](c1ccc(F)nc1)[C@@H](O)c1ccc(F)cc1 (single isomer, unassigned) [Example 35, 6-[5-(difluoromethyl)-1,3,4-oxadiazol-2-yl]-2-[(1R*,2S*)-2-(4-fluorophenyl)-1-(6-fluoropyridin-3-yl)-2-hydroxyethyl]-2,3-dihydro-1H-isoindol-1-one] |

Same assay, conditions: wells without enzyme = 100% inhibition, 10 µM

| HDAC6 inhibitory rate (%) (10 μM) | Compound |
| --- | --- |
| 100 | O=C1c2cc(-c3nnc(C(F)F)o3)ccc2CN1[C@H](c1ccccn1)[C@@H](O)c1cc(Cl)ccn1 (single isomer, unassigned) [Example 124, 2-[(1R*,2R*)-2-(4-chloropyridin-2-yl)-2-hydroxy-1-(pyridin-2-yl)ethyl]-6-[5-(difluoromethyl)-1,3,4-oxadiazol-2-yl]-2,3-dihydro-1H-isoindol-1-one] |
| 100 | O=C1c2cc(-c3nnc(C(F)F)o3)ccc2CN1[C@H](c1ccccn1)[C@@H](O)c1ccc(Cl)cn1 (single isomer, unassigned) [Example 113, 2-[(1R*,2R)-2-(5-chloropyridin-2-yl)-2-hydroxy-1-(pyridin-2-yl)ethyl]-6-[5-(difluoromethyl)-1,3,4-oxadiazol-2-yl]-2,3-dihydro-1H-isoindol-1-one] |

Same assay, conditions: wells without enzyme = 100% inhibition, read-out: HDAC6 inhibitory rate (%) (10 μM)

| Compound | inhibition at 10 µM [%] |
| --- | --- |
| O=C1c2cc(-c3nnc(C(F)F)o3)ccc2CN1[C@H](c1ccccc1)[C@@H](O)C1CCC(F)(F)CC1 (racemic) [Example 25, 2-[(1RS,2SR)-2-(4,4-difluorocyclohexyl)-2-hydroxy-1-phenylethyl]-6-[5-(difluoromethyl)-1,3,4-oxadiazol-2-yl]-2,3-dihydro-1H-isoindol-1-one] | 100 |
| O=C1c2cc(-c3nnc(C(F)F)o3)ccc2CN1[C@H](c1ccc(F)cc1)[C@@H](O)c1ccc(C(F)(F)F)nc1 (relative stereo) [Example 55, 6-[5-(difluoromethyl)-1,3,4-oxadiazol-2-yl]-2-{(1R*,2S)-1-(4-fluorophenyl)-2-hydroxy-2-[6-(trifluoromethyl)pyridin-3-yl]ethyl}-2,3-dihydro-1H-isoindol-1-one] | 98 |
| O=C1c2cc(-c3nnc(C(F)F)o3)ccc2CN1[C@H](c1ccc(F)cc1)[C@@H](O)C1CC1 (racemic) [Example 19, 2-[(1RS,2SR)-2-cyclopropyl-1-(4-fluorophenyl)-2-hydroxyethyl]-6-[5-(difluoromethyl)-1,3,4-oxadiazol-2-yl]-2,3-dihydro-1H-isoindol-1-one] | 99 |
| O=C1c2cc(-c3nnc(C(F)F)o3)ccc2CN1[C@H](c1ncccn1)[C@@H](O)c1cccc(F)c1 (single isomer, unassigned) [Example 68, 6-[5-(difluoromethyl)-1,3,4-oxadiazol-2-yl]-2-[(1R*,2S*)-2-(3-fluorophenyl)-2-hydroxy-1-(pyrimidin-2-yl)ethyl]-2,3-dihydro-1H-isoindol-1-one] | 101 |
| O=C1c2cc(-c3nnc(C(F)F)o3)ccc2CN1[C@@H](c1ccc(F)cn1)[C@H](O)c1ccc(F)cn1 (stereo in doubt) [Example 6, 2-[(1S,2S)-1,2-bis(5-fluoropyridin-2-yl)-2-hydroxyethyl]-6-[5-(difluoromethyl)-1,3,4-oxadiazol-2-yl]-2,3-dihydro-1H-isoindol-1-one] | 100 |
| Cn1cc([C@H]([C@@H](O)c2ccccc2)N2Cc3ccc(-c4nnc(C(F)F)o4)cc3C2=O)cn1 (racemic) [Example 42, 6-[5-(difluoromethyl)-1,3,4-oxadiazol-2-yl]-2-[(1RS,2SR)-2-hydroxy-1-(1-methyl-1H-pyrazol-4-yl)-2-phenylethyl]-2,3-dihydro-1H-isoindol-1-one] | 100 |
| O=C1c2cc(-c3nnc(C(F)F)o3)ccc2CN1[C@H](c1ccc(C(F)(F)F)cc1)[C@@H](O)c1ccccn1 (racemic) [Example 26, 6-[5-(difluoromethyl)-1,3,4-oxadiazol-2-yl]-2-{(1RS,2RS)-2-hydroxy-2-(pyridin-2-yl)-1-[4-(trifluoromethyl)phenyl]ethyl}-2,3-dihydro-1H-isoindol-1-one] | 99 |

Other lines, results leading:

| inhibition at 10 µM [%] | Compound |
| --- | --- |
| 99 | O=C1c2cc(-c3nnc(C(F)F)o3)ccc2CN1[C@H](C1CC1)[C@H](O)c1ccc(F)cn1 [Example 150, 2-[(1R,2S)-1-cyclopropyl-2-(5-fluoropyridin-2-yl)-2-hydroxyethyl]-6-[5-(difluoromethyl)-1,3,4-oxadiazol-2-yl]-2,3-dihydro-1H-isoindol-1-one] |
| 99 | O=C1c2cc(-c3nnc(C(F)F)o3)ccc2CN1[C@H](c1cccc(F)n1)[C@@H](O)c1ccccn1 (single isomer, unassigned) [Example 75, 6-[5-(difluoromethyl)-1,3,4-oxadiazol-2-yl]-2-[(1R*,2R*)-1-(6-fluoropyridin-2-yl)-2-hydroxy-2-(pyridin-2-yl)ethyl]-2,3-dihydro-1H-isoindol-1-one] |
| 101 | O=C1c2cc(-c3nnc(C(F)F)o3)ccc2CN1[C@H](c1cccnn1)[C@@H](O)c1cccc(Cl)c1 (relative stereo) [Example 121, 2-[(1R*,2S)-2-(3-chlorophenyl)-2-hydroxy-1-(pyridazin-3-yl)ethyl]-6-[5-(difluoromethyl)-1,3,4-oxadiazol-2-yl]-2,3-dihydro-1H-isoindol-1-one] |
| 100 | O=C1c2cc(-c3nnc(C(F)F)o3)ccc2CN1[C@H](c1cccnn1)[C@@H](O)c1cccc(Cl)c1 (single isomer, unassigned) [Example 122, 2-[(1R*,2S*)-2-(3-chlorophenyl)-2-hydroxy-1-(pyridazin-3-yl)ethyl]-6-[5-(difluoromethyl)-1,3,4-oxadiazol-2-yl]-2,3-dihydro-1H-isoindol-1-one] |
